Measured values from paper PMC5817723, “^99mTc-HYNIC-(tricine/EDDA)-FROP peptide for MCF-7 breast tumor targeting and imaging” (Journal of Biomedical Science, 2018).
Residues, ends and D or L forms follow the SMILES beside them. *: point of attachment. HYNIC = NNc1ccc(C(=O)*)cn1

Key:
[1] = In vitro stability in succinate buffer (peptide reaction mixture), %RCP by ITLC; type: physicochemical; conditions: room temperature, TLC, n = 3
Experimental: The radiochemical purity was determined by instant thin layer chromatography (ITLC) in different mobile phases such as methyl ethyl ketone (MEK), acetonitrile/water (50/50) and citrate solvent (0.1 M, pH 5.2) using a Lablogic mini scan TLC scanner (Sheffield, UK) and Laura image analysis software. In MEK, free ^99mTcO4^− migrated with the solvent front, while radiolabeled peptide remained at the application point. In the acetonitrile/water system, the colloids remained at the application point, while radiolabeled peptide migrated in front of solvent. The amount of labeled co-ligand was determined by citrate solvent, that free ^99mTcO4 Na and labeled co-ligand migrate in front of solvent while both RHT and labeled peptide (^99mTc-FROP) remind at the origin. A NaI (Tl) gamma detector (Delshid, Tehran, Iran) was used to for measurement of radioactivity.
[…] For serum stability, ^99mTc-HYNIC-FROP (30 μL) was incubated with freshly human plasma serum (90 μL) in triplicate at 37 °C. At 1 h of incubation, the plasma proteins were precipitated with a mixture of acetonitrile/ethanol (1:1 v/v) and centrifugation. The supernatant layer was filtered through a 0.22 μm filter and then the fraction was analyzed by RP-HPLC. Partition coefficient of ^99mTc-HYNIC-FROP was determined via method that previously was described.

[2] = tested on: MCF-7, A-549 SKOV-3, PC-3, T47D and HFFF2 cell lines; assay: Cellular uptake on different cell lines; type: cell-based, human; conditions: 40 nM, 37 °C, 1 h
Experimental: The cellular uptake studies of ^99mTc-HYNIC-(tricine/EDDA)-FROP were performed on MCF-7, A-549 SKOV-3, PC-3, T47D and HFFF2 cell lines. The cells (5 × 10^5) were seeded in 12-well plates overnight and incubated with ^99mTc-HYNIC-FROP (40 nM) at 37 °C for 1 h. Incubation of the samples was terminated by removing medium and washing with cold serum-free medium. Thereafter, the cells were detached by trypsin and the radioactivity in the cell suspension was quantified.

MCF-7 cells [3] = assay: In vitro specific binding (blocking) on MCF-7 cells; type: cell-based, human; conditions: pre-saturation 0.5 h at 37 °C with unlabeled FROP
Experimental: For specific binding experiment, the MCF-7 cells were saturated with 500-fold excess of unlabeled peptide prior adding of the ^99mTc-HYNIC-FROP to cells for 30 min.

MCF-7 cells [4] = assay: Internalization study in MCF-7 cells; type: cell-based, human; conditions: MCF-7, 40 nM, acid wash urea buffer pH 2.5
Experimental: For internalization experiment, MCF-7 cells (1 × 10^6 cells) were seeded on the single plates and incubated with ^99mTc-HYNIC-FROP (40 nM) at 4 °C. After 1 h incubation, medium was removed and cells were washed with ice-cold serum free medium. Then 1 mL complete medium was added to each dish and cells were further incubated for 0.5, 1, 2, 6 and 24 h at 37 °C. After incubation, medium was removed from cellular plate and then was washed once with cold serum free medium. Then supernatant was collected, and for removing radioactivity bound to the surface of the cells, the acid wash with urea buffer (pH 2.5) was used. The internalized radiolabeled peptide was recovered by solubilizing the cells with 1 M NaOH at 37 °C for 5 min, and the surface-bound (acid-wash) and internalized (acid-resistant) radioactivity were measured with the gamma counter.

MCF-7 cells [5] = assay: Saturation binding assay on MCF-7 cells; parameters: species or system human; conditions: saturation 30–250 nM, 30 min, nonlinear regression
Experimental: The cell-binding affinity of ^99mTc-HYNIC-FROP was assessed with saturation method. For determining of […] (Kd) and total number of binding sites (Bmax), ^99mTc-HYNIC-FROP was prepared in high radiochemical purity. MCF-7 cells were seeded into 24-well plates and incubated overnight. Then cells were incubated with various concentrations of radiolabeled peptide (30–250 nM) for 30 min. One dish was added blocking solution containing of 500-fold excess of highest concentration of ^99mTc-HYNIC-FROP. The cells were then washed with cold serum free medium to remove free radioactivity. The cells with bound radioactivity detached with trypsin and collected and radioactivity was measured. The (Kd) and (Bmax) value were calculated using Graphpad prism software based on specific binding of ^99mTc-HYNIC-FROP on MCF-7 cells.

[6] = 5 × 10^5 cells, cell-associated radioactivity

CSCC[C@H](NC(=O)[C@H](CC(C)C)NC(=O)[C@H](CCC(=O)O)NC(=O)[C@H](Cc1ccc(O)cc1)NC(=O)[C@H](CC(=O)O)NC(=O)[C@@H](N)CCC(=O)O)C(=O)N[C@@H](CC(=O)O)C(=O)N[C@@H](CC(C)C)C(=O)N[C@@H](CC(C)C)C(=O)N[C@@H](C)C(=O)N[C@@H](Cc1ccc(O)cc1)C(=O)N[C@@H](CC(C)C)C(=O)N[C@@H](CCCCNC(=O)c1ccc(NN)nc1)C(=O)O [^99mTc-HYNIC-FROP, metal not drawn] (H-EDYELMDLLAYLK(HYNIC)-OH)
%RCP in succinate buffer (peptide reaction mixture) ([1]; 2 h): 99.6 ± 0.2% | %RCP in succinate buffer (peptide reaction mixture) ([1]; 4 h): 99.5 ± 0.4% | %RCP in succinate buffer (peptide reaction mixture) ([1]; 6 h): 99.1 ± 0.9% | %RCP in succinate buffer (peptide reaction mixture) ([1]; 24 h): 96.8 ± 2.4% | MCF-7/A-549 ratio of uptake [2, 6]: 8.2 | MCF-7/PC-3 ratio of uptake [2, 6]: 2.3 | MCF-7/SKOV-3 ratio of uptake [2, 6]: 8.8 | MCF-7/T47D ratio of uptake [2, 6]: 4.5 | MCF-7/HFFF2 ratio of uptake ([2]; HFFF2 = normal human fibroblast): 9.7 | binding to MCF-7 cells with 500-fold excess of unlabeled peptide (FROP) (MCF-7 cells [3]): significant reduction | internalized radiolabeled peptide, % of the total radioactivity in the cells (MCF-7 cells [4]; 1 h at 4 °C then 30 min at 37 °C): 10.6 ± 0.8% | internalized radiolabeled peptide, % of the total radioactivity in the cells (MCF-7 cells [4]; 1 h at 4 °C then 6 h at 37 °C): 18.3 ± 2.3% | Bmax (maximum number of binding sites) (MCF-7 cells [5]; listed as 99mTc-HYNIC-(tricine-EDDA)-Lys-FROP): 4.5 ± 0.6 × 10^7 CPM/pMol | Bmax (maximum number of binding sites) (MCF-7 cells [5]; listed as 99mTc-HYNIC-(tricine/EDDA)-FROP): (4.5±0.6)·10^7 CPM/pMol
